Laboratory results published in paper PMC11990383, “Structure Determination of Tegoprazan((S)-4-((5,7-difluorochroman-4-yl)oxy)-N,N,2-trimethyl-1H-benzo[d]imidazole-6-formamide) Polymorphs A and B by Laboratory X-Ray Powder Diffraction” (Molecules, 2025).
Values after ≈ are worked out from the molar mass of the structure shown. Read-outs that look alike come from different tables or passages of the source.

How the values were obtained:
[1] = Stability of polymorphs under accelerated conditions, followed by DSC and XRD; assay type: physicochemical; details: 40 ± 2 °C, relative humidity 75 ± 5 %, 8-week period; changes seen in the eighth week
Description: As a case in point, the stability of the two Tegoprazan polymorphs was evaluated under accelerated conditions (temperature: 40 ± 2 °C, relative humidity: 75 ± 5 HR%) over an 8-week period, with observations for any significant changes conducted using DSC (Differential Scanning Calorimetry) and XRD (X-ray diffraction). […] Therefore, it is essential to elucidate the details of this phenomenon. For quantitative phase analysis and similar studies, knowledge of the crystal structure is crucial. However, the crystal structures of Polymorphs A and B remain unresolved. In response to this need, we explored a practical approach to crystal structure analysis by utilizing readily available powder samples, laboratory-scale XRD instruments, and cost-efficient Rietveld refinement software specifically EXPO2014 (expo version 1.22.11). The known method of SDPD (Structure Determination from Powder Diffraction) was considered as one potential solution to address these challenges. While X-ray diffraction often utilizes synchrotron radiation or other advanced accelerator-based facilities, the crystal structures of Tegoprazan Polymorphs A and B were analyzed using laboratory-based X-ray diffraction (XRD) equipment and powdered samples. This approach was chosen for the following reasons: […]

[2] = Equilibrium solubility in water, potentiometric (pH-metric) CheqSol method; assay type: physicochemical; details: for solubility: thermodynamic from solid, read-out: equilibrium concentration (solubility, S)
Description: Solubility (S) measurements were conducted in water using the CheqSol system at five temperatures: 15 °C, 25 °C, 35 °C, 45 °C, and 55 °C. However, due to the hydrolytic instability of Tegoprazan at elevated temperatures and the pH-dependent nature of the CheqSol assay, reliable measurements could only be obtained at 15 °C and 25 °C. Based on the equilibrium solubility values at these two temperatures, the enthalpy of solution (ΔHsol) was estimated for each polymorph using van’t Hoff plots of ln(S) versus 1/T.
Solubility measurements were performed using the potentiometric (pH-metric) method with the CheqSol system (T3, Sirius Analytical Instruments Ltd., Portsmouth, UK). Unlike pKa determinations, solubility assays require relatively high sample concentrations to ensure saturation across a broad pH range (typically, pH 2 to 12). In this method, the solution is intentionally brought into a supersaturated state to establish “crossing points,” from which the intrinsic (equilibrium) solubility is calculated based on the concentration of the neutral species predominating at specific pH levels. The high initial concentration of the sample promotes supersaturation, leading to precipitation at pH values corresponding to the compound’s pKa. This onset of precipitation reflects the kinetic solubility, which can be characterized by various physicochemical parameters, including the pKa value, saturated pH, sample concentration, temperature, and crystallinity. This study aimed to investigate the temperature dependence of solubility for Polymorphs A and B. Measurements were conducted at five temperatures: 15 °C, 25 °C, 35 °C, 45 °C, and 55 °C.

Row | solid-state stability (changes by DSC and XRD) [1] | solubility ([2]; 15 °C, 15 °C) | solubility ([2]; 25 °C, 25 °C) | equilibrium concentration (solubility, S) ([2]; 15 °C) | equilibrium concentration (solubility, S) ([2]; 25 °C) | Compound
1 | No changes | 1250 µM (≈ 483 µg/mL) | 1440 µM (≈ 557 µg/mL) |  |  | Cc1nc2c(OC3CCOc4cc(F)cc(F)c43)cc(C(=O)N(C)C)cc2[nH]1 [Polymorph A, (S)-4-((5,7-difluorochroman-4-yl)oxy)-N,N,2-trimethyl-1H-benzo[d]imidazole-6-formamide]
2 | phase transition to Polymorph A |  |  | 1476 µM | 2118 µM | Cc1nc2c(OC3CCOc4cc(F)cc(F)c43)cc(C(=O)N(C)C)cc2[nH]1 [Polymorph B, (S)-4-((5,7-difluorochroman-4-yl)oxy)-N,N,2-trimethyl-1H-benzo[d]imidazole-6-formamide]
